# Reference: patent US20240408062A1 (Purdue Research Foundation, priority 2022, published 2024)
# Biological target: SARS-CoV-2 3CLpro (Severe acute respiratory syndrome coronavirus 2, UniProt P0DTD1)
# Experiment: Inhibition of SARS-CoV-2 3CLpro, continuous fluorescence assay with FRET-based substrate UIVT3
# Format: biochemical
# Settings: FRET substrate UIVT3, 50-200 nM enzyme, pH 7.5, 25° C.
# Method: Kinetic assays were performed in Costar 3694 EIA/RIA 96-well half-area, flat bottom, black polystyrene plates (Corning, Corning, NY) at 25° C. The increase in fluorescence intensity was measured at an emission wavelength of 528 nm (20 nm bandwidth) using an excitation wavelength of 485 (bandwidth 20 nm) using a CLARIOstar Plate Reader (BMG Labtech, Cary, NC). The initial rates of the reactions were determined from the slopes of the Relative Fluorescence Units (RFU) versus time (RFU min^−1). Inhibition data were collected and analyzed as described previously.
row,Compound,Activity of SARS-CoV-2 Mpro inhibitors
1,COc1cccc2[nH]c(C(=O)N[C@@H](CC(C)C)C(=O)N[C@@H](C[C@@H]3CCNC3=O)C(=O)C(=O)c3ccccc3)cc12 [Compound 1],A++ (A++ < 1 μM)
2,CC(C)C[C@@H](C(=O)N[C@@H](C[C@@H]1CCNC1=O)C(=O)C(=O)c1ccccc1)N(C)C(=O)[C@@H](NC(=O)C(F)(F)F)C(C)(C)C [Compound 2],A+ (A+ < 10 μM)
3,CN(C(=O)[C@@H](NC(=O)C(F)(F)F)C(C)(C)C)[C@H](CC1CCCC1)C(=O)NC(C[C@@H]1CCNC1=O)C(=O)C(=O)c1ccccc1 (some centres unmarked) [Compound 3],A+ (A+ < 10 μM)
4,CC(C)C[C@H](CC(=O)[C@@H](NC(=O)C(F)(F)F)C(C)(C)C)C(=O)N[C@@H](C[C@@H]1CCNC1=O)C(=O)C(=O)c1ccccc1 [Compound 4],A++ (A++ < 1 μM)
5,CC(C)C[C@@H](C(=O)N[C@@H](CC1CCCNC1=O)C(=O)C(=O)c1ccccc1)N(C)C(=O)[C@@H](NC(=O)C(F)(F)F)C(C)(C)C (some centres unmarked) [Compound 5],A++ (A++ < 1 μM)
